Patent US20240197742A1, “Therapeutic Combinations of a CD19 Inhibitor and a BTK Inhibitor” (Acerta Pharma B.V., priority 2015, published 2024)
Entries after “also recorded” stand apart in the source; their conditions may differ.

Legend:
[1] = system: BCR activation markers CD69 and CD86; experiment: In vivo potency: expression of BCR activation markers after IgM stimulation; details: mice gavaged, 3 hours post-dose, BCR stimulated with IgM; versus Formula (10)
Protocol: Mice were gavaged at increasing drug concentration and sacrificed at one time point (3 hours post-dose). BCR is stimulated with IgM and the expression of activation markers CD69 and CD86 are monitored by flow cytometry to determine EC50 values.
CD86 and CD69 are cell surface proteins that are BCR activation markers. […] BCR was stimulated with IgM and the expression of activation marker CD69 and CD86 are monitored by flow cytometry to determine EC50 values.

[2] = target: CYP3A4 (Homo sapiens, UniProt P08684); experiment: Loss of parent drug as catalyzed by CYPs; type: in vitro ADME; details: in vitro
Description: (§1) No unique human metabolite was identified. Preliminary evaluations of metabolism in the plasma, bile, and urine of rats, dogs, and monkeys indicated metabolic processes of oxidation, glutathione binding, and hydrolysis.

[3] = In vitro metabolism in hepatocytes; type: in vitro ADME, and human; details: ^4C-labeled Formula (2); mouse, rat, dog, rabbit, monkey, human hepatocytes
Description: as §1

[4] = system: KPC derived mouse pancreatic cancer cells; experiment: Orthotopic pancreatic cancer model; type: in vivo; details: Formula (2) 15 mg/kg/BID given orally
Protocol: In this study, KPC derived mouse pancreatic cancer cells (KrasG12D;Trp53R172H;Pdx1-Cre) were injected into the pancreases.
Single cell suspensions from tumor samples. Mouse tumor tissue was collected and stored in PBS/0.1% soybean trypsin inhibitor prior to enzymatic dissociation. Samples were finely minced with a scissors and mouse tissue was transferred into DMEM containing 1.0 mg/mL collagenase IV (Gibco), 0.1% soybean trypsin inhibitor, and 50 U/ml DNase (Roche) and incubated at 37° C. for 30 min. with constant stirring while human tissue was digested in 2.0 mg/ml collagenase IV, 1.0 mg/ml hyluronidase, 0.1% soybean trypsin inhibitor, and 50 U/ml DNase for 45 minutes. Suspensions were filtered through a 100 micron filter and washed with FACS buffer (PBS/0.5% BSA/2.0 mM EDTA) prior to staining. Two million total cells were stained with antibodies as indicated. Intracellular detection of FoxP3 was achieved following permeabilization with BD Perm Buffer III (BD Biosciences) and eBioscience Fix/Perm respectively. Following surface staining, samples were acquired on a BD Fortessa and analyzed using FlowJo (Treestar) software.

[5] = system: NSCLC (KrasLA2); experiment: KrasLA2 non-small cell lung cancer model; type: in vivo, mice; details: dosing of 15 mg/kg
Description: The model is designed to have sporadic expression in single cells of G12D mutant Kras off its own promoter triggered by spontaneous intrachromosomal recombination. Johnson, et al. Nature 2001, 410, 1111-16. While the mutant Kras protein is expressed in a few cells in all tissues, tumor development is seen only in the lung at high penetrance.

[6] = system: NK cells; experiment: Antibody-dependent NK cell-mediated IFN-γ release (ELISA); type: cell-based, human; details: 1 μM; trastuzumab-coated (10 μg/mL) HER18, 4 hours
Protocol: Cytokine secretion was determined as follows. […] NK cells from healthy donors were enriched as described above and then added to the target cells and incubated for 4 hours at 37° C. Triplicate cultures were performed on NK cells from donors. After incubation, supernatants were harvested, centrifuged briefly, and then analyzed for interferon-γ using an enzyme-linked immunosorbent assay (ELISA) (R&D Systems, Minneapolis, MN, USA).

[7] = system: NK cells; experiment: Antibody-dependent NK cell-mediated degranulation (CD107a); type: cell-based, human
Protocol: Lytic granule release was determined as follows. NK cells from healthy donors were enriched and cultured in the presence of target cells, monoclonal antibodies and test articles as described above. After 4 hours, the cultures were harvested and cells were pelleted, washed, and then stained for flow cytometry evaluation. Degranulation was evaluated via by flow cytometery by externalization of CD107a, a protein normally present on the inner leaflet of lytic granules, and gating on NK cells (CD3-CD16^+ lymphocytes). The percentage of CD107α positive NK cells was quantified by comparison with a negative control (isotype control, unstained cells/FMO). Control cultures (NK cells cultured without target cells, or NK, target cell co-cultures in the absence of appropriate monoclonal antibody) were also evaluated; all experiments were performed in triplicate.

[8] = system: primary CLL cells; experiment: ADCC chromium release assay, primary CLL targets; type: cell-based, human; details: 1 μM; E:T 25:1; variable rituximab concentrations
Protocol: All in vitro experiments were performed in triplicate.
ADCC assays were performed as follows. Briefly, target cells (Raji or primary CLL) were labeled by incubation at 37° C. with 100 μCi ^51Cr for 4 hours prior to co-culture with NK cells. Cells were washed, enumerated, and then added in triplicate to prepared 96-well plates containing treated NK cells at an effector:target (E:T) ratio of 25:1. […] Cultures were incubated at 37° C. for 4 hours, and then centrifuged. Supernatants were harvested and ^51Cr release was measured by liquid scintillation counting. All experiments were performed in triplicate.

[9] = system: CD8+ T cells; experiment: Cytotoxic T cell (CTL) assay; type: cell-based; details: 500 nM, relative to vehicle
Protocol: Without being bound by any theory, CD8^+ T cells have two primary effector functions: (1) produce large amounts of IFN-γ (which activates macrophages), and (2) cytolytic activity. […] The targets were B lymphoblasts from lipopolysaccharide (LPS) treated cultures. The assay was performed by incubating different ratios of effectors:targets for 4 hours.

[10] = system: human platelets; experiment: Laser injury thrombus formation in VWF HA1 mice infused with human platelets; details: 0.1 μM, 0.5 μM, or 1 μM
Protocol: Injury to the vessel wall of arterioles ([…] diameter) was performed using a pulsed nitrogen dye laser (440 nm, Photonic Instruments) applied through a 20× water-immersion Olympus objective (LUMPlanF1, 0.5 numerical aperture (NA)) of a Zeiss Axiotech vario microscope. […] The extent of thrombus formation was assessed for 2 minutes after injury and the area (μm^2) of coverage determined (Image IQ, Andor Technology).
The BTK inhibitor-treated human platelets were fluorescently labeled and infused continuously through a catheter inserted into the femoral artery.

[11] = system: GPVI; experiment: GPVI platelet aggregation (convulxin); type: cell-based, human
Protocol: GPVI platelet aggregation was measured for Formula (2) and Formula (10) (ibrutinib). Blood was obtained from untreated humans, and platelets were purified from […] by centrifugation. Cells were resuspended to a final concentration of 350,000/μL in buffer containing 145 mmol/L NaCl, 10 mmol/L HEPES, 0.5 mmol/L Na2HPO4, 5 mmol/L KCl, 2 mmol/L MgCl2, 1 mmol/L CaCl2, and 0.1% glucose, at pH 7.4. Stock solutions of Convulxin (CVX) GPVI were prepared on the day of experimentation and added to platelet suspensions 5 minutes (37° C., 1200 rpm) before the induction of aggregation. Aggregation was assessed with a Chronolog Lumi-Aggregometer (model 540 VS; Chronolog, Havertown, PA) and permitted to proceed for 6 minutes after the addition of agonist. The results are reported as maximum percent change in light transmittance from baseline with platelet buffer used as a reference.
In FIG. 72, the results of CVX-induced (250 ng/mL) human platelet aggregation results before and 15 minutes after administration of the BTK inhibitors to 6 healthy individuals are shown.

[12] = target: EGFR (Homo sapiens, UniProt P00533); experiment: EGF receptor phosphorylation in A431 cells (phosphoflow); details: 10 μM; A431 human epidermoid cancer cell line
EGFR, sequence (P00533 25-1210): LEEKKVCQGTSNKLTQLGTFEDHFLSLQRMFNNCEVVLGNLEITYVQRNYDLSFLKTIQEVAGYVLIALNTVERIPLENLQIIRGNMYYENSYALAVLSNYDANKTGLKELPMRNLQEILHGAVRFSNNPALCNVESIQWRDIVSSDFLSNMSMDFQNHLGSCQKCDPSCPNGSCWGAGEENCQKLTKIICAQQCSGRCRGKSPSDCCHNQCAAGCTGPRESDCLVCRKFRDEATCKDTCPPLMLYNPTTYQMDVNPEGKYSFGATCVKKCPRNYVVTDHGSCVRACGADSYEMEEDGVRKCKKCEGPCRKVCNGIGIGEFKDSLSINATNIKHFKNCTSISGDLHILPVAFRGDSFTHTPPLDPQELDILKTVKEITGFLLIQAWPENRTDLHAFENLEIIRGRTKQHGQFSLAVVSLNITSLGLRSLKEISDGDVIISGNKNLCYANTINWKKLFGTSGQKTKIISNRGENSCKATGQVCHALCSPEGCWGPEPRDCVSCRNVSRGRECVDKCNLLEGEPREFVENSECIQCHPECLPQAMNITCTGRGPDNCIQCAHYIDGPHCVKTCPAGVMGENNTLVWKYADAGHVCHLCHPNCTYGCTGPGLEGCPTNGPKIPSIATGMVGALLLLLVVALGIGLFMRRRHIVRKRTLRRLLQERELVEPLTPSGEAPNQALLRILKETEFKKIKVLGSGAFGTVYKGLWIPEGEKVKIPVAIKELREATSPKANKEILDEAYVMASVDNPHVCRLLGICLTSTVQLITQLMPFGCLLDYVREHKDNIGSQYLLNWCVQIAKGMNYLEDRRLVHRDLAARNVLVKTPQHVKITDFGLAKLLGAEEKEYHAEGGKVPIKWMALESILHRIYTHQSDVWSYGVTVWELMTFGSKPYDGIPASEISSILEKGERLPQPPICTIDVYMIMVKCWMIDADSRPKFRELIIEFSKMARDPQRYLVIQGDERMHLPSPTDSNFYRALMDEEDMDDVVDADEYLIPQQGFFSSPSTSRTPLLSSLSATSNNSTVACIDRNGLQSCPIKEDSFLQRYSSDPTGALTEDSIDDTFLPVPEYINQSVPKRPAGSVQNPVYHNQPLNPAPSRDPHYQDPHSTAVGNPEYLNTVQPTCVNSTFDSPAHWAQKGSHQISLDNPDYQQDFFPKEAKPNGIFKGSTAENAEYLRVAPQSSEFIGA

CYP3A4, sequence (P08684 whole entry): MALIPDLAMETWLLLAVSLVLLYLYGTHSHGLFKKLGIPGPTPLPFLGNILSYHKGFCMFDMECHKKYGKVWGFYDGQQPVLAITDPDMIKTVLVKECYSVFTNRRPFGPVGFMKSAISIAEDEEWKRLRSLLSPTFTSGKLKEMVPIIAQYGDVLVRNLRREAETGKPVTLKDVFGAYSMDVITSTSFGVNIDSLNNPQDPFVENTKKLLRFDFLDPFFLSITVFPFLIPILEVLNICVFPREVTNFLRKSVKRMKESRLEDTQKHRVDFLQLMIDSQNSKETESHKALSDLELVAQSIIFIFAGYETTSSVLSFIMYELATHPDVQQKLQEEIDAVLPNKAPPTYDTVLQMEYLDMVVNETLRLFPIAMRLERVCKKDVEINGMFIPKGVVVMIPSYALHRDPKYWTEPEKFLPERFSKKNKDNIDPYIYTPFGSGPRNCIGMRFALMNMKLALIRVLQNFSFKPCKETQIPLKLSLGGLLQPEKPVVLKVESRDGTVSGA

In the case of CC#CC(=O)N1CCC[C@H]1c1nc(-c2ccc(C(=O)Nc3ccccn3)cc2)c2c(N)nccn12 [Formula (2), (S)-4-(8-amino-3-(1-(but-2-ynoyl)pyrrolidin-2-yl)imidazo[1,5-α]pyrazin-1-yl)-N-(pyridin-2-yl)benzamide], the “in vivo potency at inhibiting expression of activation markers CD69 and CD86” value [1] is reported as “more potent”, the “metabolism by CYPs” value [2] is reported as “metabolized by CYP3A4” and the metabolites in hepatocytes [3] is reported as “two mono-oxidized metabolites and a glutathione conjugate”. For the same molecule, the tumor burden [4] was “reduction in tumor burden”, the “immunosuppressive tumor associated MDSCs” value [5] was “significant reduction” and the “immunosuppressive tumor associated TAMs” value [5] was “significant reduction”. The “immunosuppressive tumor associated Tregs” value [5] was “significant reduction”, the number of tumors [5] was “fewer overall tumors” and the “tumor volumes versus vehicle (microCT)” value [5] was “significant decrease”. The “inhibition of trastuzumab-stimulated NK cell cytokine release” value [6] was “no inhibitory effect”, the “inhibition of trastuzumab-stimulated NK cell degranulation” value ([7]; 1 μM, trastuzumab-coated (10 μg/mL) HER18, 4 hours) was “no inhibitory effect” and the “reduction of rituximab-stimulated NK cell degranulation” value ([7]; rituximab-coated (10 μg/mL) DHL-4, 4 hours) was under 2%. For the same molecule, the “effect on rituximab-mediated ADCC, primary CLL / autologous tumor cells” value [8] was “not inhibited”, the “CD8+ T cell function as measured by % cytotoxicity” value ([9]; 4 days CTL generation) was “no effect” and the “CD8+ T cell function as measured by IFN-γ level” value [9] was “no effect”. For the same molecule, the “effect on human platelet-mediated thrombus formation” value [10] was “does not interfere with thrombus formation; also recorded: no significant effect”, the “effect on GPVI platelet aggregation” value ([11]; CVX-induced human platelet aggregation) was “does not” and the IC50 ([11]; purified human platelets, convulxin (CVX)) was 1150 nM. For the same molecule, the “inhibition of in vitro EGFR phosphorylation” value [12] was “no inhibition”.
